Key:
Settings in all cases: Preemergence
[1] = test system: wheat; test: Test B pre/postemergence wheat; type: in vivo, Triticum aestivum
Procedure, shortened: (§1)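 Test chemicals in a non-phytotoxic solvent mixture with surfactant were sprayed preemergence onto planted seeds and postemergence onto plants 2 to 18 cm tall (1- to 4-leaf stage). After twelve to sixteen days in a greenhouse, injury was visually rated against untreated controls from 0 (no effect) to 10 (complete control).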

[2] = test system: cocklebur; test: Test B pre/postemergence cocklebur; type: in vivo, Xanthium strumarium
Procedure, shortened: as §1

[3] = test system: morningglory; test: Test B pre/postemergence morningglory; type: in vivo, Ipomoea hederacea
Procedure, shortened: as §1

[4] = test system: rape; test: Test B pre/postemergence rape; type: in vivo, Brassica napus
Procedure, shortened: as §1

[5] = test system: purple nutsedge; test: Test B pre/postemergence purple nutsedge; type: in vivo, Cyperus rotundus
Procedure, shortened: as §1

[6] = test system: corn; test: Test B pre/postemergence corn; type: in vivo, Zea mays
Procedure, shortened: as §1

[7] = test system: giant foxtail; test: Test B pre/postemergence giant foxtail; type: in vivo, Setaria faberii
Procedure, shortened: as §1

[8] = test system: soybean; test: Test B pre/postemergence soybean; type: in vivo, Glycine max
Procedure, shortened: as §1

[9] = test system: crabgrass; test: Test B pre/postemergence crabgrass; type: in vivo, Digitaria sanguinalis
Procedure, shortened: as §1

[10] = test system: surinam grass; test: Test B pre/postemergence surinam grass; type: in vivo, Brachiaria decumbens
Procedure, shortened: as §1

[11] = test system: wild oat; test: Test B pre/postemergence wild oat; type: in vivo, Avena fatua
Procedure, shortened: as §1

[12] = test system: blackgrass; test: Test B pre/postemergence blackgrass; type: in vivo, Alopecurus myosuroides
Procedure, shortened: as §1

[13] = test system: sugar beet; test: Test B pre/postemergence sugar beet; type: in vivo, Beta vulgaris
Procedure, shortened: as §1

[14] = test system: bedstraw; test: Test B pre/postemergence bedstraw; type: in vivo, Galium aparine
Procedure, shortened: as §1

[15] = test system: pigweed; test: Test B pre/postemergence pigweed; type: in vivo, Amaranthus retroflexus
Procedure, shortened: as §1

[16] = test system: velvetleaf; test: Test B pre/postemergence velvetleaf; type: in vivo, Abutilon theophrasti
Procedure, shortened: as §1

[17] = Rate 62 g/ha, scale of 0 to 10 where 0 is no effect and 10 is complete control
[18] = Rate 125 g/ha, scale of 0 to 10 where 0 is no effect and 10 is complete control
[19] = Rate 500 g/ha, scale 0 to 10 (0 no effect, 10 complete control)
[20] = Rate 250 g/ha, scale 0 (no effect) to 10 (complete control)

COC(CCl)n1c(=O)on(C(=O)N(c2ccccc2)C(C)C)c1=O (stereo not shown) [Compound 735]
Wheat plant response rating [1, 17]: 0
Plant response rating, Wheat [1, 18]: 0
Wheat plant response rating [1, 19]: 2
Cocklebur plant response rating [2, 17]: 0
Plant response rating, Cocklebur [2, 18]: 0
Cocklebur plant response rating [2, 20]: 0
Cocklebur plant response rating [2, 19]: 0
Morningglory plant response rating [3, 17]: 0
Plant response rating, Morningglory [3, 18]: 0
Morningglory plant response rating [3, 20]: 2
Morningglory plant response rating [3, 19]: 2
Rape plant response rating [4, 17]: 1
Plant response rating, Rape [4, 18]: 6
Rape plant response rating [4, 20]: 8
Rape plant response rating [4, 19]: 8
Nutsedge plant response rating [5, 17]: 0
Nutsedge plant response rating [5, 20]: 0
Corn plant response rating [6, 17]: 0
Plant response rating, Corn [6, 18]: 6
Corn plant response rating [6, 20]: 8
Corn plant response rating [6, 19]: 9
Giant foxtail plant response rating [7, 17]: 9
Plant response rating, Giant foxtail [7, 18]: 10
Giant foxtail plant response rating [7, 20]: 10
Giant foxtail plant response rating [7, 19]: 10
Soybean plant response rating [8, 17]: 0
Plant response rating, Soybean [8, 18]: 0
Soybean plant response rating [8, 20]: 0
Soybean plant response rating [8, 19]: 0
Crabgrass plant response rating [9, 17]: 10
Plant response rating, Crabgrass [9, 18]: 10
Crabgrass plant response rating [9, 20]: 10
Crabgrass plant response rating [9, 19]: 10
B. signalgrass plant response rating [10, 17]: 7
Plant response rating, B. signalgrass [10, 18]: 8
B. signalgrass plant response rating [10, 20]: 9
B. signalgrass plant response rating [10, 19]: 10
Wild oats plant response rating [11, 17]: 6
Plant response rating, Wild oats [11, 18]: 8
Wild oats plant response rating [11, 20]: 8
Wild oats plant response rating [11, 19]: 10
Blackgrass plant response rating [12, 17]: 8
Plant response rating, Blackgrass [12, 18]: 10
Blackgrass plant response rating [12, 20]: 10
Blackgrass plant response rating [12, 19]: 10
Sugarbeets plant response rating [13, 17]: 0
Plant response rating, Sugarbeets [13, 18]: 2
Sugarbeets plant response rating [13, 20]: 6
Sugarbeets plant response rating [13, 19]: 7
Bedstraw plant response rating [14, 17]: 0
Plant response rating, Bedstraw [14, 18]: 0
Bedstraw plant response rating [14, 20]: 0
Bedstraw plant response rating [14, 19]: 0
Redroot pigweed plant response rating [15, 17]: 5
Plant response rating, Redroot pigweed [15, 18]: 7
Redroot pigweed plant response rating [15, 20]: 8
Redroot pigweed plant response rating [15, 19]: 9
Velvetleaf plant response rating [16, 17]: 0
Plant response rating, Velvetleaf [16, 18]: 0
Velvetleaf plant response rating [16, 20]: 3
Velvetleaf plant response rating [16, 19]: 3
